Source: patent publication US20140309186A1, “Metabolomics-Based Identification of Disease-Causing Agents” (Georgia Tech Research Corporation, priority 2007, published 2014)

Assays:
Jurkat cells [1] = settings: literature search; cited from earlier work
OVCAR-3 cells [2] = settings: literature; cited from earlier work
Jurkat cells [3] = experiment: Growth inhibition of Jurkat cells, resazurin-based in vitro toxicology assay (TOX-8); type: cell-based, Human; settings: for activity at 100 µM: Homo sapiens, Jurkat, read-out: Jurkat cell growth as percentage of the untreated control
malignant erythroblasts = settings: literature; cited from earlier work
RNA polymerase II = settings: literature; cited from earlier work
HT29 colon cancer cells = settings: literature; cited from earlier work
histone deacetylase 1 = biological target: T1, histone deacetylase 1 (Homo sapiens, UniProt Q13547); settings: literature; cited from earlier work
T1 construct: host or cells: HT29 (cell context of the cited finding)

human lymphoblast cells = experiment: Growth of human lymphoblast cells cultured in identical conditions; type: cell-based; settings: 50 μM
Protocol: The positive association between lowered metabolite levels in Jurkat cells as predicted by CoMet and antiproliferative activity of the metabolite in that cell line is highly significant (Fisher's exact test two-tailed p-value=8.7×10^−6). Furthermore, when the effect of these metabolites on growth inhibition was tested in Jurkat and human lymphoblast cells cultured in identical conditions, a pattern of selectivity of the antiproliferative effect towards the cancer cell line became evident.

normal T lymphocytes = settings: cited from earlier work
OVCAR-3 cells [4] = experiment: Growth inhibition of OVCAR-3 cells, resazurin-based in vitro toxicology assay (TOX-8); type: cell-based, human; settings: single metabolite, 100 μM, 72 hours
HeLa cell = settings: literature; cited from earlier work
[5] = biological target: T2, tryptophanyl-tRNA synthetase (Homo sapiens, UniProt P23381); settings: literature; cited from earlier work
T2 construct: host or cells: HeLa (cell context of the cited finding)
T2 sequence (P23381 1-471): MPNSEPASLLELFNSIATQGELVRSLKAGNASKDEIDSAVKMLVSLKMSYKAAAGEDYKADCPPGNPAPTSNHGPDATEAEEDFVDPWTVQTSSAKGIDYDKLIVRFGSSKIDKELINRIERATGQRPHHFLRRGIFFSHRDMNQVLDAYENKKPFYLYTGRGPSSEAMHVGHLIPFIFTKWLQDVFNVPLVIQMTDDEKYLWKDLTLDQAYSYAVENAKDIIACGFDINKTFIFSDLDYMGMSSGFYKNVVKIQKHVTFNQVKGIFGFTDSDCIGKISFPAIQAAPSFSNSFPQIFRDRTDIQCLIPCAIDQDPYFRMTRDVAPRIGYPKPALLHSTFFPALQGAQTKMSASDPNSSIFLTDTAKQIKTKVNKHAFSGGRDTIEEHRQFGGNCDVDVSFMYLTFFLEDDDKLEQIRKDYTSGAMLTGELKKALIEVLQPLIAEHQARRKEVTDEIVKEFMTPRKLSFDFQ

HL-60 cells = settings: literature; cited from earlier work
[6] = single metabolite, 100 μM, 72 hour treatment, control = 100%, lower = stronger inhibition

T1 sequence (Q13547 whole entry): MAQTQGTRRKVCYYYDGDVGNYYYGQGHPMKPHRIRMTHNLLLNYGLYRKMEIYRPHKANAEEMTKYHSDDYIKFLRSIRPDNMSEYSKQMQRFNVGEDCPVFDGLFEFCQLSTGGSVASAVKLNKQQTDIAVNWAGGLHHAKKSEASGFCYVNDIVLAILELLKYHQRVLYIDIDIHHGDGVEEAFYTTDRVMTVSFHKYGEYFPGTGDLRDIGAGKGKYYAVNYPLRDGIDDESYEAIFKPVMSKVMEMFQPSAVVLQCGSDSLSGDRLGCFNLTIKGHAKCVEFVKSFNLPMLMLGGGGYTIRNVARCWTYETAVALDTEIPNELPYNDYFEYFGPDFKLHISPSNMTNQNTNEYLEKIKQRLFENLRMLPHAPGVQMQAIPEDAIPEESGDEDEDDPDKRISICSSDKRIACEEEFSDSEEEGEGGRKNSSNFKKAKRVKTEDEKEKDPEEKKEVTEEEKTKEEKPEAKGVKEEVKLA

Compound	anticancer activity in Jurkat cells known from the literature (Jurkat cells [1])	activity at 100 µM (Jurkat cells [3]; [6]) [%]	other results
COc1cc2c(cc1O)CC[C@@H]1[C@@H]2CC[C@]2(C)[C@@H](O)CC[C@@H]12 [2-methoxy-estradiol-17β]	apoptotic agent		anticancer activity in OVCAR-3 cells previously demonstrated (OVCAR-3 cells [2]): anticancer activity
Nc1ncnc2c1ncn2[C@H]1C[C@H](O)[C@@H](CO)O1 [2′-deoxyadenosine]	active in Jurkat cells		
Nc1nc2c(ncn2[C@H]2C[C@H](O)[C@@H](CO)O2)c(=O)[nH]1 [2′-deoxyguanosine]	active in Jurkat cells		
OC[C@H]1O[C@@H](n2cnc3c(O)ncnc32)C[C@@H]1O [2′-deoxyinosine]	active in Jurkat cells		
N[C@@H](Cc1cc(I)c(Oc2ccc(O)c(I)c2)c(I)c1)C(=O)O [3′,3,5-triiodo-L-thyronine]			anticancer activity in OVCAR-3 cells previously demonstrated (OVCAR-3 cells [2]): anticancer activity
Cc1cc2nc[nH]c2cc1C [5,6-di-ethylbenzimidazole, 5,6-dimethylbenzimidazole]		61.4	
Clc1cc2nc[nH]c2cc1Cl [5,6-dichlorobenzimidazole]			effect on malignant erythroblasts (malignant erythroblasts): induces differentiation; effect on RNA polymerase II (RNA polymerase II): inhibiting
CCCCCCCCCC(O)CCCCCCCC(=O)O (stereo not drawn) [9-hydroxystearic acid]			effect on HT29 colon cancer cells (HT29 colon cancer cells): arrests HT29 colon cancer cells in G0/G1 phase; effect on histone deacetylase 1 (histone deacetylase 1): inhibition
CC1=C(/C=C/C(C)=C/C=C/C(C)=C/C(=O)O)C(C)(C)CCC1 [all-trans-retinoic acid]			anticancer activity in OVCAR-3 cells previously demonstrated (OVCAR-3 cells [2]): anticancer activity
C=CC1=C(C)/C(=C/c2[nH]c(Cc3[nH]c(/C=C4\NC(=O)C(C)=C4C=C)c(C)c3CCC(=O)O)c(CCC(=O)O)c2C)NC1=O [bilirubin]		21.3	
C=C1/C(=C\C=C2/CCC[C@]3(C)[C@@H]([C@H](C)CCCC(C)(C)O)CC[C@@H]23)C[C@@H](O)C[C@@H]1O [calcitriol]			anticancer activity in OVCAR-3 cells previously demonstrated (OVCAR-3 cells [2]): anticancer activity
CC(C)CCC[C@@H](C)[C@H]1CC[C@H]2[C@@H]3CC=C4C[C@@H](O)CC[C@]4(C)[C@H]3CC[C@]12C [cholesterol]		> 90	
O=C(O)CC(O)(CC(=O)O)C(=O)O [citric acid]		> 90	
C[C@]12CC[C@H](O)CC1=CC[C@@H]1[C@@H]2CC[C@]2(C)C(=O)CC[C@@H]12 [dehydroepiandrosterone]			effect on growth of Jurkat cells (in words) (Jurkat cells [3]; 50 μM): inhibited the growth; effect on proliferation of lymphoblasts (in words) (human lymphoblast cells): stimulated the proliferation
Nc1nc2ncc(CNc3ccc(C(=O)N[C@@H](CCC(=O)O)C(=O)O)cc3)nc2c(=O)[nH]1 [folic acid]		> 90	
CC(=O)CO [hydroxyacetone]		> 70	

Compound	anticancer activity in Jurkat cells known from the literature (Jurkat cells [1])	activity at 100 µM (Jurkat cells [3]; [6]) [%]	other results
CCCCC/C=C\C/C=C\CCCCCCCC(=O)O [linoleic acid]	active in Jurkat cells		
COc1ccc2[nH]cc(CCNC(C)=O)c2c1 [melatonin]	active in Jurkat cells		
CC(=O)C=O [methylglyoxal]	active in Jurkat cells		
NC(=O)c1cccnc1 [nicotinamide]	active in Jurkat cells		
CC(C)(CO)[C@@H](O)C(=O)NCCC(=O)O [pantothenic acid]		> 90	
CCCCC[C@H](O)/C=C/[C@H]1C(=O)C[C@H](O)[C@@H]1C/C=C\CCCC(=O)O [prostaglandin D2]	induces apoptosis		effect on viability of normal T lymphocytes (normal T lymphocytes): without inhibiting the viability
Cc1cc2nc3c(=O)[nH]c(=O)nc-3n(C[C@H](O)[C@H](O)[C@H](O)CO)c2cc1C [riboflavin]		> 70	
N[C@@H](CS(=O)O)C(=O)O [sulfino-L-alanine, 3-sulfino-L-alanine]			effect on growth of OVCAR-3 cells (in words) (OVCAR-3 cells [4]): did not inhibit the growth; effect on growth of Jurkat cells (in words) (Jurkat cells [3]; single metabolite, 100 μM, 72 hour treatment): did not inhibit the growth
C[C@]12CC[C@H]3[C@@H](CCC4=CC(=O)CC[C@@]43C)[C@@H]1CC[C@@H]2O [testosterone]	active in Jurkat cells		
Cc1cn([C@H]2C[C@H](O)[C@@H](CO)O2)c(=O)[nH]c1=O [thymidine]	antineoplastic agent		
NCCc1c[nH]c2ccccc12 [tryptamine]			effect on HeLa cell growth (HeLa cell): effective inhibitor; effect on tryptophanyl-tRNA synthetase [5]: competitive inhibition
COc1cc(C(O)C(=O)O)ccc1O (stereo not drawn) [vanillylmandelic acid]		> 90	
CCCCCCCCCCCCCCCCC(O)C(=O)O (stereo not drawn) [α-hydroxystearic acid]		67.8	
menaquinone			effect on HL-60 cells (HL-60 cells): induce G0/G1 arrest, differentiation, and apoptosis; Jurkat cell growth as percentage of the untreated control (Jurkat cells [3]; [6]): 11.3%
sphingolipid GD3	active in Jurkat cells		
